# Target: T1, Cytochrome P450 3A4 (Homo sapiens, UniProt P08684)
# Assay: Inhibition of human recombinant CYP3A4 assessed as biotransformation of 7-benzyloxyquinoline to 7-hydroxyquinoline at 10 uM measured every 15 mins by fluorescence intensity analysis
# Type: ADME
# Conditions: recombinant enzyme, 0.25 h; call rule not given here
# T1 sequence (P08684 whole entry): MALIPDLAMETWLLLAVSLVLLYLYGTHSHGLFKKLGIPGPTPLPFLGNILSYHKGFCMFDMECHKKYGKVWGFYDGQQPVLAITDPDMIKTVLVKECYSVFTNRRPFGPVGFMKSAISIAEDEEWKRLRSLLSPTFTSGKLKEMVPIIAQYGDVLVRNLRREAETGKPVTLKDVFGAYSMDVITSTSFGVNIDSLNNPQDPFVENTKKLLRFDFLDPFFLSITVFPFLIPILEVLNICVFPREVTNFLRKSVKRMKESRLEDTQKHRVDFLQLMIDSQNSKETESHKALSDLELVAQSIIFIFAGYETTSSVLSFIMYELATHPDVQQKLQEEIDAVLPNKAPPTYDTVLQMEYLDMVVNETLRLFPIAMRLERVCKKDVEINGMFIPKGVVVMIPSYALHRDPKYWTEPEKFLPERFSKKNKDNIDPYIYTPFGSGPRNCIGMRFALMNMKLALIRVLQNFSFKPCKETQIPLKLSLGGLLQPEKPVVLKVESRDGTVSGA
row,SMILES,inhibition (INH)
1,CC1(C)O[C@@H]([C@H](O)[C@@H](CNC(=O)c2ccccc2)c2ccc3c(c2)OCO3)[C@H](CO)O1,Not Active
2,CC1(C)O[C@@H]([C@H](OC(=O)c2ccccc2)[C@@H](CN=[N+]=[N-])c2ccc3c(c2)OCO3)[C@H](CO[Si](C)(C)C(C)(C)C)O1,Not Active

# More lines, now with the values ahead:
row,inhibition (INH),SMILES
1,Not Active,COCO[C@@H]([C@@H]1OC(C)(C)O[C@H]1CO[Si](C)(C)C(C)(C)C)[C@@H](CN=[N+]=[N-])c1ccc2c(c1)OCO2
2,Not Active,O=C(NC[C@@H](c1ccc2c(c1)OCO2)[C@@H](O)[C@H](O)[C@@H](O)CO)c1ccccc1

# Target: T1, Cytochrome P450 3A4
# Assay: Inhibition of human recombinant CYP3A4 assessed as biotransformation of 7-benzyloxyquinoline to 7-hydroxyquinoline measured every 15 mins by fluorescence intensity analysis
# Type: ADME
# Conditions: not given
row,SMILES,Ki
1,COCO[C@@H]([C@@H]1OC(C)(C)O[C@H]1CO[Si](C)(C)C(C)(C)C)[C@@H](CNC(=O)c1ccccc1)c1ccc2c(c1)OCO2,30 nM
2,COCO[C@@H]([C@@H]1OC(C)(C)O[C@H]1COC(C)=O)[C@@H](CNC(=O)c1ccccc1)c1ccc2c(c1)OCO2,1010 nM
3,COCO[C@@H]([C@@H]1OC(C)(C)O[C@H]1COS(=O)(=O)c1ccc(C)cc1)[C@@H](CNC(=O)c1ccccc1)c1ccc2c(c1)OCO2,70 nM

# Now from value to compound:
row,Ki,SMILES
1,320 nM,COCO[C@@H]([C@@H]1OC(C)(C)O[C@H]1CO[Si](C)(C)C(C)(C)C)[C@@H](CNC(=O)OC(C)(C)C)c1ccc2c(c1)OCO2
2,170 nM,CC1(C)O[C@@H]([C@H](O)[C@@H](CNC(=O)c2ccccc2)c2ccc3c(c2)OCO3)[C@H](CO[Si](C)(C)C(C)(C)C)O1
3,580 nM,COCO[C@@H]([C@@H]1OC(C)(C)O[C@H]1CO[Si](c1ccccc1)(c1ccccc1)C(C)(C)C)[C@@H](CNC(=O)c1ccccc1)c1ccc2c(c1)OCO2
4,1550 nM,COCO[C@@H]([C@@H]1OC(C)(C)O[C@H]1CO)[C@@H](CNC(=O)c1ccccc1)c1ccc2c(c1)OCO2
